From PubChem BioAssay (NCI)
Values joined by “and” are separate entries in the source; they are usually repeats but may differ in a detail not shown here. Equal values may be shown once.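 Tested at 5 concentrations; 48 h exposure; 96-well plates; endpoints linearly interpolated, else capped at highest concentration. GI50 = concentration required for 50% inhibition of growth. The concentration for full growth arrest is given as TGI.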

Assays:
Assay in all cases: NCI tumour cell line growth inhibition, 48 h
[1] = test system: COLO 205 colon
[2] = test system: MDA-N
[3] = test system: HS 578T breast
[4] = test system: NCI-H460 lung
[5] = test system: SNB-75 CNS
[6] = test system: HCT-15 colon
[7] = test system: CCRF-CEM leukemia
[8] = test system: HL-60(TB) leukemia
[9] = test system: SNB-19 CNS
[10] = test system: CAKI-1 renal
[11] = test system: SR leukemia

Structure (SMILES): CCN(CC)CCOC(c1cc(OC)ccc1OC)c1ccc2n1-c1ccccc1OC2 (centres undefined)
- TGI [1]: 17.9 µM
- TGI [2]: 26.5 µM
- TGI [3]: 30.9 µM
- TGI [4]: 26.2 µM
- TGI [5]: 17.3 µM
- TGI [6]: 23.6 µM
- TGI [7]: 17.2 µM
- TGI [8]: 30.4 µM
- TGI [9]: 31.2 µM
- TGI [10]: 30 µM

Structure (SMILES): CCCN=C1CC(C)Nc2ccccc2N1 (centres undefined)
- TGI [1]: > 100 µM
- TGI [2]: > 100 µM
- TGI [3]: > 100 µM
- TGI [4]: > 100 µM
- TGI [5]: > 100 µM
- TGI [6]: > 100 µM
- TGI [7]: > 100 µM
- TGI [8]: > 100 µM
- TGI [9]: > 100 µM
- TGI [10]: > 100 µM

Structure (SMILES): CCC(=O)C(c1ccccc1)c1ccccn1 (centres undefined)
- TGI [1]: > 100 µM
- TGI [2]: > 100 µM
- TGI [3]: > 100 µM
- TGI [4]: > 100 µM
- TGI [5]: > 100 µM
- TGI [6]: > 100 µM
- TGI [7]: > 100 µM
- TGI [8]: > 100 µM
- TGI [9]: > 100 µM
- TGI [10]: > 100 µM

Structure (SMILES): C[N+](C)(C)CC(=O)N/N=c1\cc(C(=O)Nc2ccc(N=O)cc2C#N)oc2cc(O)ccc12
- TGI [1]: > 100 µM
- TGI [11]: > 100 µM
- TGI [4]: > 100 µM
- TGI [5]: > 100 µM
- TGI [6]: > 100 µM
- TGI [7]: > 100 µM
- TGI [8]: > 100 µM
- TGI [9]: > 100 µM
- TGI [10]: > 100 µM

Structure (SMILES): N#C/C(=C\NC(=S)Nc1ccc(S(=O)(=O)Nc2ccccn2)cc1)C(N)=O
- TGI [1]: > 100 µM
- TGI [11]: > 100 µM
- TGI [2]: > 100 µM
- TGI [3]: > 100 µM
- TGI [4]: > 100 µM
- TGI [5]: > 100 µM
- TGI [6]: > 100 µM
- TGI [7]: > 100 µM
- TGI [9]: > 100 µM
- TGI [10]: > 100 µM

Structure (SMILES): c1ccc(C[P+]2(c3ccccc3)c3ccccc3-c3ccccc32)cc1
- TGI [1]: > 100 µM
- TGI [2]: > 100 µM
- TGI [3]: > 100 µM
- TGI [5]: > 100 µM
- TGI [6]: > 100 µM
- TGI [7]: > 100 µM
- TGI [8]: > 100 µM
- TGI [9]: > 100 µM
- TGI [10]: > 100 µM

Structure (SMILES): CCCCCCCCCC[C@@H](O)[C@H]1CC[C@H]([C@H]2CC[C@H]([C@H](O)CCCCCCCCCC[C@@H]3CC(CC(C)=O)C(=O)O3)O2)O1 (some centres undefined)
- GI50 [1]: 6.71 µM
- TGI [1]: > 29.5 µM
- GI50 [3]: 8.36 µM
- TGI [3]: > 50 µM
- TGI [4]: > 50 µM
- GI50 [5]: 3.88 µM
- TGI [5]: > 50 µM
- GI50 [6]: 7.21 µM
- TGI [6]: > 50 µM
- GI50 [7]: 1.74 µM
- TGI [7]: > 50 µM
- GI50 [8]: 2.25 µM
- TGI [8]: 9.6 µM and > 50 µM
- GI50 [9]: 1.08 µM
- TGI [9]: > 50 µM
- TGI [10]: > 50 µM

Structure (SMILES): COc1ccc2c(c1)c1c(n2CCN2CCOCC2)-c2ccccc2CC1
- TGI [1]: 30.8 µM
- TGI [11]: 43.7 µM
- TGI [2]: > 100 µM
- TGI [3]: 42.8 µM
- TGI [4]: 89.2 µM
- TGI [5]: > 100 µM
- TGI [6]: > 100 µM
- TGI [7]: 69.5 µM
- TGI [10]: > 100 µM

Structure (SMILES): CCOc1ccc(N/C(=C(/C(Cl)=C(/Cl)NCCN)[N+](=O)[O-])n2nnc3ccccc32)cc1
- TGI [1]: 32.4 µM
- TGI [2]: > 100 µM
- TGI [3]: 98.2 µM
- TGI [4]: > 100 µM
- TGI [5]: > 100 µM
- TGI [6]: 38 µM
- TGI [7]: > 100 µM
- TGI [9]: > 100 µM
- TGI [10]: 34.8 µM

Structure (SMILES): Nc1ccccc1Nc1ccccc1C(=O)[O-].Nc1ccccc1Nc1ccccc1C(=O)[O-].[Cu+2]
- TGI [1]: > 100 µM
- TGI [4]: > 100 µM
- TGI [5]: > 100 µM
- TGI [6]: > 100 µM
- TGI [7]: > 100 µM
- TGI [9]: > 100 µM
- TGI [10]: > 100 µM

Structure (SMILES): O=c1c2c3ccccc3[nH]c2c2cccc3c2n1CCC3
- TGI [1]: > 100 µM
- TGI [11]: 67.5 µM
- TGI [2]: > 100 µM
- TGI [3]: > 100 µM
- TGI [4]: > 100 µM
- TGI [5]: > 100 µM
- TGI [6]: > 100 µM
- TGI [7]: > 100 µM
- TGI [9]: > 100 µM

Structure (SMILES): Cc1ccc(-c2cc(N)n(-c3nc4c([nH]3)c(=O)n(C)c(=O)n4C)n2)cc1
- TGI [1]: 21.8 µM
- TGI [11]: > 100 µM
- TGI [2]: > 100 µM
- TGI [3]: > 100 µM
- TGI [4]: 18.4 µM
- TGI [6]: 18.6 µM
- TGI [7]: > 100 µM
- TGI [8]: > 100 µM
- TGI [9]: > 100 µM
- TGI [10]: 13.4 µM

Structure (SMILES): COC(=O)c1cc(CC(C)C)c2c(c1)[nH]c1ccccc12
- TGI [1]: > 100 µM
- TGI [4]: > 100 µM
- TGI [5]: > 100 µM
- TGI [6]: > 100 µM
- TGI [7]: > 100 µM
- TGI [9]: > 100 µM
- TGI [10]: > 100 µM

Structure (SMILES): COC1O[C@H]2CCN(C(=O)OCc3ccccc3)[C@H]2[C@H]1OCc1ccccc1 (some centres undefined)
- TGI [1]: > 100 µM
- TGI [11]: 99.7 µM
- TGI [4]: > 100 µM
- TGI [5]: > 100 µM
- TGI [6]: > 100 µM
- TGI [7]: > 100 µM
- TGI [8]: 68.6 µM
- TGI [9]: > 100 µM
- TGI [10]: > 100 µM

Structure (SMILES): O=C1CC(O)c2c1csc2Br (centres undefined)
- TGI [1]: 59.9 µM
- TGI [2]: 83.4 µM
- TGI [3]: 72.4 µM
- TGI [4]: > 100 µM
- TGI [5]: > 100 µM
- TGI [6]: 39 µM
- TGI [7]: 55.1 µM
- TGI [9]: > 100 µM
- TGI [10]: > 100 µM

Structure (SMILES): Cc1ccccc1C1OC1C(=O)c1ccccc1N (centres undefined)
- TGI [1]: > 100 µM
- TGI [11]: > 100 µM
- TGI [2]: 36.3 µM
- TGI [4]: > 100 µM
- TGI [6]: > 100 µM
- TGI [7]: > 100 µM
- TGI [9]: > 100 µM
- TGI [10]: > 100 µM

Structure (SMILES): CC12CC(c3ccccc3O1)C(C(=O)Nc1ccc(F)cc1)C(=O)N2 (centres undefined)
- TGI [1]: > 100 µM
- TGI [11]: > 100 µM
- TGI [2]: > 100 µM
- TGI [3]: > 100 µM
- TGI [4]: > 100 µM
- TGI [6]: > 100 µM
- TGI [7]: > 100 µM
- TGI [8]: > 100 µM
- TGI [9]: > 100 µM
- TGI [10]: > 100 µM

Structure (SMILES): Cc1cc(=O)cc2sc3c(C)cccc3nc1-2
- TGI [1]: 32.6 µM
- TGI [11]: > 100 µM
- TGI [4]: 57.6 µM
- TGI [5]: > 100 µM
- TGI [6]: > 100 µM
- TGI [7]: 59.4 µM
- TGI [8]: 46.8 µM
- TGI [9]: > 100 µM
- TGI [10]: 83 µM

Structure (SMILES): COc1ccc2nc(-c3ccc(OCc4ccccc4)cc3)ccc2c1
- TGI [1]: > 100 µM
- TGI [11]: > 100 µM
- TGI [4]: > 100 µM
- TGI [5]: > 100 µM
- TGI [7]: > 100 µM
- TGI [8]: > 100 µM
- TGI [9]: > 100 µM

Structure (SMILES): O=C1CCCN(c2ccccc2)N1
- TGI [11]: > 100 µM
- TGI [4]: > 100 µM
- TGI [5]: > 100 µM
- TGI [6]: > 100 µM
- TGI [8]: > 100 µM
- TGI [9]: > 100 µM
- TGI [10]: > 100 µM

Structure (SMILES): O=C(Cc1nc2ccc(C(=O)c3ccccc3)cc2[nH]c1=O)C(=O)Nc1ccc(Br)cc1
- TGI [2]: > 100 µM
- TGI [3]: > 100 µM
- TGI [4]: > 100 µM
- TGI [5]: > 100 µM
- TGI [6]: > 100 µM
- TGI [8]: > 100 µM
- TGI [10]: > 100 µM

Structure (SMILES): COC(=O)C1=C(C(=O)OC)C2OC1C1C2C2(C)C(C)=C(C)C1(C)S2=O (centres undefined)
- TGI [1]: 13.8 µM
- TGI [2]: > 50.3 µM
- TGI [3]: 51.4 µM
- TGI [4]: 36.3 µM
- TGI [5]: 38.1 µM
- TGI [6]: 20.5 µM
- TGI [9]: 66.1 µM
- TGI [10]: 27 µM
